Broadly, the IC50 is the concentration at which inhibition is half-maximal. By inhibition is commonly meant how much of the control response was suppressed. Lower therefore signals a response near the control.

What all share (assay type): cell-based
The subject of one assay is d-U937 cells. Put plainly: LPS-induced TNFα/IL-8 release in d-U937 cells. As to conditions: Homo sapiens, dU937, assay (aa). On the procedure:
U937 cells, a human monocytic cell line, are differentiated to macrophage-type cells by incubation with phorbol myristate acetate (PMA; 100 ng/mL) for 48 to 72 hr. Cells are pre-incubated with final concentrations of test compound for 2 hr and are then stimulated with 0.1 μg/mL of LPS (from E. Coli: 0111:B4, Sigma) for 4 hr. The supernatant is collected for determination of TNFα and IL-8 concentrations by sandwich ELISA (Duo-set, R&D systems). […] The relative 50% effective concentration (REC50) is determined from the resultant concentration-response curve. The inhibition of IL-8 production is calculated at each concentration of test compound by comparison with vehicle control.

Another assay deals with HT29 cells. The assay can be described thus: IL-1β-induced IL-8 release in HT29 cells. As to conditions: Homo sapiens, HT-29, assay (d), read-out: IC50 Values for Inhibition of Cytokine Release HT29 cells IL-8. On the procedure:
HT29 cells, a human colon adenocarcinoma cell line, are plated in a 96 well plate (24 hr) and pre-treated with compounds at the desired concentration for 2 hours before addition of 5 ng/mL of IL-1β (Abcam) for 24 hours. Supernatants are harvested for IL-8 quantification by Sandwich ELISA (Duo-set, R&D System). The IC50 is determined from the dose response curve.

The subject of assay [1] is PBMCs. Put plainly: Cell mitosis assay in PBMCs. As to conditions: Homo sapiens, PBMC, 5 μg/mL. In short, it runs like this: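 Human PBMCs from healthy donors, density-gradient isolated, stimulated with 2% PHA 48 h, then exposed 20 h to test compounds; demecolcine 0.1 μg/mL added 2 h before harvest. Fixed/permeabilised cells stained for phospho-histone H3 and propidium iodide; mitotic lymphocytes counted by flow cytometry.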

Assay [2] has as its system PBMCs. Put plainly: LPS-induced TNFα/IL-8 release in PBMC cells. The conditions noted are these: Homo sapiens, assay (b), read-out: IC50 Values for Inhibition of Cytokine Release PBMCs IL-8. In short, it runs like this:
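Healthy-donor PBMCs isolated by density gradient were pretreated with compound for 2 h, then stimulated with 1 ng/mL LPS (E. coli 0111:B4) for 24 h at 37° C., 5% CO2. IL-8 and TNFα in supernatants measured by sandwich ELISA.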

Assay [3] relates to PBMCs. Put plainly: IL-2 and IFN gamma release in CD3/CD28 stimulated PBMC cells. As to conditions: Homo sapiens, assay (c). In short, it runs like this: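 Healthy-donor PBMCs, density-gradient isolated, stimulated on plates pre-coated with anti-CD3 (0.3 μg/mL) and anti-CD28 (3 μg/mL) antibodies, with compound, for 3 days under standard culture conditions. IC50 derived from the dose-response curve.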

The mark [4] stands for this setting: method: relative to 10 μg/mL BIRB796 (REC50), read-out: IC50 Values for Inhibition of Cytokine Release dU937 cells TNFα.
Setting [5] is: read-out: IC50 Values for Inhibition of Cytokine Release dU937 cells IL-8.
The mark [6] stands for this setting: read-out: IC50 Values for Inhibition of Cytokine Release PBMCs IFNγ.
The mark [7] stands for this setting: read-out: IC50 Values for Inhibition of Cytokine Release PBMCs IL-2.

Like-named read-outs stand apart in the source and are kept apart here.

In the case of `COCCOCCOCCOCCOCCOCCOCCOc1cc(Nc2nccc(Oc3ccc(NC(=O)Nc4cc(C(C)(C)C)cc(NS(C)(=O)=O)c4OC)c4ccccc34)n2)cc(OC)c1` [Example 14, N-(3-(3-(4-((2-((3-(2,5,8,11,14,17,20-Heptaoxadocosan-22-yloxy)-5-methoxyphenyl)amino)-pyrimidin-4-yl)oxy)naphthalen-1-yl)ureido)-5-(tert-butyl)-2-methoxyphenyl)-methanesulfonamide], the IC50 amounted to 0.5 nM in the assay on d-U937 cells (setting [4]); 0.6 nM with d-U937 cells (setting [5]); 3 nM with HT29 cells; 1.7 nM in the assay on PBMCs [2]; 19.7 nM with PBMCs [3] (setting [6]); 182 nM in the assay on PBMCs [3] (setting [7]). This molecule had an inhibition at 5 µg/mL with PBMCs [1] of 49.8%.
As to `COCCOCCOCCOc1cc(Nc2nccc(Oc3ccc(NC(=O)Nc4cc(C(C)(C)C)cc(NS(C)(=O)=O)c4OC)c4ccccc34)n2)cc(OC(F)F)c1` [Example 17, N-(5-(tert-Butyl)-3-(3-(4-((2-((3-(difluoromethoxy)-5-(2-(2-(2-methoxyethoxy)ethoxy)-ethoxy)phenyl)amino)pyrimidin-4-yl)oxy)naphthalen-1-yl)ureido)-2-methoxyphenyl)-methanesulfonamide], the IC50 came out at 1.4 nM in the assay on d-U937 cells (setting [5]); 5.1 nM in the assay with HT29 cells; 1.8 nM in the assay with PBMCs [2]; 8.2 nM with PBMCs [3] (setting [6]); 65.6 nM in the assay with PBMCs [3] (setting [7]). In the assay on PBMCs [1], the inhibition at 5 µg/mL was found to be 37%.
For `COCCOCCOCCOc1cc(Nc2cc(Oc3ccc(NC(=O)Nc4cc(C(C)(C)C)cc(NS(C)(=O)=O)c4OC)c4ccccc34)ccn2)cc(OC)c1` [Example 11, N-(5-(tert-Butyl)-2-methoxy-3-(3-(4-((2-((3-methoxy-5-(2-(2-(2-methoxyethoxy)ethoxy)-ethoxy)phenyl)amino)pyridin-4-yl)oxy)naphthalen-1-yl)ureido)phenyl)-methanesulfonamide], the IC50 was determined as 1.2 nM with d-U937 cells (setting [4]); 1.4 nM in the assay with d-U937 cells (setting [5]); 9.3 nM in the assay with HT29 cells; 2.6 nM in the assay with PBMCs [2]; 17.7 nM in the assay with PBMCs [3] (setting [6]); 73.6 nM in the assay with PBMCs [3] (setting [7]). The same molecule had an inhibition at 5 µg/mL with PBMCs [1] of 33.5%.
Regarding `COc1cc(Nc2nccc(Oc3ccc(NC(=O)Nc4cc(C(C)(C)C)cc(NS(C)(=O)=O)c4OC)c4ccccc34)n2)cc(S(=O)(=O)C2CC2)c1` [Example 5, N-(5-(tert-Butyl)-3-(3-(4-((2-((3-(cyclopropylsulfonyl)-5-methoxyphenyl)amino)pyrimidin-4-yl)oxy)naphthalen-1-yl)ureido)-2-methoxyphenyl)methanesulfonamide], the IC50 in the assay with d-U937 cells (setting [4]) was 0.5 nM; in the assay on d-U937 cells (setting [5]), 1.4 nM; in the assay on HT29 cells, 6.8 nM; in the assay on PBMCs [2] it was 2.4 nM; in the assay on PBMCs [3] (setting [6]) it was 10.3 nM; in the assay on PBMCs [3] (setting [7]), 151 nM. At 5 µg/mL the inhibition with PBMCs [1] was 44.9%.
On to `COCCOCCOCCOc1cc(Nc2nccc(Oc3ccc(NC(=O)Nc4cc(C(C)(C)C)cc(NS(C)(=O)=O)c4OC)c(Cl)c3Cl)n2)cc(OC)c1` [Example 10, N-(5-(tert-Butyl)-3-(3-(2,3-dichloro-4-((2-((3-methoxy-5-(2-(2-(2-methoxyethoxy)ethoxy)-ethoxy)phenyl)amino)pyrimidin-4-yl)oxy)phenyl)ureido)-2-methoxyphenyl)-methanesulfonamide], for which the half-maximal inhibitory concentration (IC50) with d-U937 cells (setting [4]) was 0.3 nM; with d-U937 cells (setting [5]) it was 0.8 nM; with HT29 cells it was 4.6 nM; with PBMCs [2], 2.3 nM; in the assay with PBMCs [3] (setting [6]) it was 4.4 nM; in the assay on PBMCs [3] (setting [7]), 9 nM. The molecule also displayed an inhibition at 5 µg/mL in the assay on PBMCs [1] of 70.2%.

For the origin of these results see US10435361B2, “Kinase inhibitors” (Topivert Pharma Limited, priority 2013, dated 2019).
